Assay results: PubChem BioAssay AID248 (DTP/NCI, 2004)
Where “and” joins values, the source holds several entries; their conditions need not be identical. Identical values can stand only once. Toxic doses and inconclusive results are not listed.

Test system: L1210 leukemia ip in BDF1 mice, survival T/C
Experiment: NCI In Vivo Anticancer Drug Screen. Data for tumor model L1210 Leukemia (intraperitoneal) in B6D2F1 (BDF1) mice
Details: endpoint: mean survival time, higher = longer survival
Summary of the method: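 Read-out is survival time, reported as the treated-group measurement over the vehicle-control measurement.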

[1] = dose: 100.0 mg/kg/injection, schedule: Q01DX009 (ip), vehicle: saline with Tween-80
[2] = dose: 200.0 mg/kg/injection, schedule: Q01DX009 (ip), vehicle: saline with Tween-80
[3] = dose: 25.0 mg/kg/injection, schedule: Q04DX003 (ip), vehicle: saline with Tween-80
[4] = dose: 50.0 mg/kg/injection, schedule: Q01DX009 (ip), vehicle: saline

SMILES: OC(CN1CC1)C(O)CN1CC1 (stereo unspecified)
- T/C (dose: 0.06 mg/kg/injection, schedule: Q01DX Z (ip), vehicle: carboxymethylcellulose (CMC)): 114 % of control
- T/C (dose: 0.4 mg/kg/injection, schedule: Q01DX Z (ip), vehicle: saline): 100 % of control
- T/C (dose: 0.5 mg/kg/injection, schedule: Q01DX Z (ip), vehicle: carboxymethylcellulose (CMC)): 200 % of control
- T/C (dose: 0.6 mg/kg/injection, schedule: Q01DX Z (ip), vehicle: saline): 100 % of control
- T/C (dose: 0.9 mg/kg/injection, schedule: Q01DX Z (ip), vehicle: saline): 95 % of control
- T/C (dose: 1.0 mg/kg/injection, schedule: Q01DX Z (ip), vehicle: carboxymethylcellulose (CMC)): 90 % of control
- T/C (dose: 1.3 mg/kg/injection, schedule: Q01DX Z (ip), vehicle: saline): 95 % of control

SMILES: COC(CN(C)C(=O)NC1CCCCC1)OC
- T/C [1]: 102 % of control
- T/C [2]: 100 % of control

SMILES: CC1Cc2ccccc2C2=C3CC=CCC3C3C(=O)OC(=O)C3C21 (stereo unspecified)
- T/C (dose: 75.0 mg/kg/injection, schedule: Q01DX001 (ip), vehicle: carboxymethylcellulose (CMC)): 89 % of control
- T/C (dose: 150.0 mg/kg/injection, schedule: Q01DX001 (ip), vehicle: carboxymethylcellulose (CMC)): 94 % of control
- T/C (dose: 300.0 mg/kg/injection, schedule: Q01DX001 (ip), vehicle: carboxymethylcellulose (CMC)): 90 % of control

SMILES: CCCSCCCCSCCC
- T/C [3]: 115 % of control
- T/C (dose: 50.0 mg/kg/injection, schedule: Q04DX003 (ip), vehicle: saline with Tween-80): 104 % of control
- T/C [1]: 100 % of control
- T/C (dose: 100.0 mg/kg/injection, schedule: Q04DX003 (ip), vehicle: saline with Tween-80): 102 % of control
- T/C [2]: 109 % of control
- T/C (dose: 200.0 mg/kg/injection, schedule: Q04DX003 (ip), vehicle: saline with Tween-80): 92 % of control
- T/C (dose: 400.0 mg/kg/injection, schedule: Q01DX009 (ip), vehicle: saline with Tween-80): 91 % of control
- T/C (dose: 400.0 mg/kg/injection, schedule: Q04DX003 (ip), vehicle: saline with Tween-80): 95 % of control

SMILES: CSc1nc(N)nc2nc(C)c(C)cc12
- T/C (dose: 100.0 mg/kg/injection, schedule: Q01DX Z (ip), vehicle: methylcellulose (MC)): 90 % of control
- T/C (dose: 200.0 mg/kg/injection, schedule: Q01DX Z (ip), vehicle: methylcellulose (MC)): 89 % of control

SMILES: OC1/C(=C/c2ccccc2)c2cccc3cccc1c23 (stereo unspecified)
- T/C (dose: 50.0 mg/kg/injection, schedule: Q01DX009 (ip), vehicle: saline with Tween-80): 90 % of control
- T/C [1]: 93 % of control
- T/C [2]: 93 % of control

SMILES: OCC1c2ccccc2C(CO)c2c1ccc1ccccc21 (stereo unspecified)
- T/C (dose: 100.0 mg/kg/injection, schedule: Q01DX001 (ip), vehicle: Klucel (hydroxypropylcellulose) (HPC)): 98 % of control
- T/C (dose: 200.0 mg/kg/injection, schedule: Q01DX001 (ip), vehicle: Klucel (hydroxypropylcellulose) (HPC)): 98 % of control
- T/C (dose: 400.0 mg/kg/injection, schedule: Q01DX001 (ip), vehicle: Klucel (hydroxypropylcellulose) (HPC)): 100 % of control

SMILES: [Cl][Pd][Cl].[NH-]C1CCCC1.[NH-]C1CCCC1
- T/C (dose: 6.25 mg/kg/injection, schedule: Q04DX002 (ip), vehicle: saline): 102 % of control
- T/C (dose: 12.5 mg/kg/injection, schedule: Q04DX002 (ip), vehicle: saline): 105 % of control
- T/C (dose: 25.0 mg/kg/injection, schedule: Q04DX002 (ip), vehicle: saline): 97 % of control

SMILES: Cc1cccnc1NC(=O)/C=C/C(=O)O
- T/C (dose: 12.5 mg/kg/injection, schedule: Q01DX009 (ip), vehicle: saline): 94 % of control
- T/C (dose: 25.0 mg/kg/injection, schedule: Q01DX009 (ip), vehicle: saline): 100 % of control
- T/C [4]: 94 % of control

SMILES: Nc1ncnc(N)c1NC(=O)c1cccc(Br)c1
- T/C (dose: 6.25 mg/kg/injection, schedule: Q04DX003 (ip), vehicle: saline with Tween-80): 96 % of control
- T/C (dose: 12.5 mg/kg/injection, schedule: Q04DX003 (ip), vehicle: saline with Tween-80): 96 % of control
- T/C [3]: 100 % of control and 103 % of control

SMILES: COc1ccc(C#N)cc1OC
- T/C (dose: 6.25 mg/kg/injection, schedule: Q04DX002 (ip), vehicle: Klucel (hydroxypropylcellulose) (HPC)): 93 % of control
- T/C (dose: 12.5 mg/kg/injection, schedule: Q04DX002 (ip), vehicle: Klucel (hydroxypropylcellulose) (HPC)): 96 % of control
- T/C (dose: 25.0 mg/kg/injection, schedule: Q04DX002 (ip), vehicle: Klucel (hydroxypropylcellulose) (HPC)): 93 % of control and 96 % of control
- T/C (dose: 100.0 mg/kg/injection, schedule: Q04DX002 (ip), vehicle: Klucel (hydroxypropylcellulose) (HPC)): 100 % of control
- T/C (dose: 200.0 mg/kg/injection, schedule: Q04DX002 (ip), vehicle: Klucel (hydroxypropylcellulose) (HPC)): 92 % of control

SMILES: CC1OCC(C)(CO)CO1 (stereo unspecified)
- T/C [4]: 102 % of control
- T/C (dose: 100.0 mg/kg/injection, schedule: Q01DX009 (ip), vehicle: saline): 101 % of control
- T/C (dose: 100.0 mg/kg/injection, schedule: Q04DX003 (ip), vehicle: acetone): 106 % of control
- T/C (dose: 200.0 mg/kg/injection, schedule: Q01DX009 (ip), vehicle: saline): 98 % of control
- T/C (dose: 200.0 mg/kg/injection, schedule: Q04DX003 (ip), vehicle: acetone): 122 % of control
- T/C (dose: 400.0 mg/kg/injection, schedule: Q04DX003 (ip), vehicle: acetone): 111 % of control

SMILES: O=C(O)C1=C(C(=O)Nc2cccc3cccnc23)C2C=CC1O2 (stereo unspecified)
- T/C (dose: 100.0 mg/kg/injection, schedule: Q01DX001 (ip), vehicle: saline): 96 % of control
- T/C (dose: 200.0 mg/kg/injection, schedule: Q01DX001 (ip), vehicle: saline): 97 % of control
- T/C (dose: 400.0 mg/kg/injection, schedule: Q01DX001 (ip), vehicle: saline): 95 % of control
